Source: patent US8163796B1, “Treatment of cancer by oxidation-reduction potentiation of cancerostatic dicarbonyls” (BioChemical Solutions, LLC, priority 2009, dated 2012)

Assays:
[1] = mice, single oral dose of 200 mg; cited from earlier work
[2] = oral administration; cited from earlier work
cancer cells = conditions: cited from earlier work
[3] = test system: murine B cell lymphoma cell line (A20;ATCC#TIB-208); test: Tritiated thymidine incorporation (growth rate) of cultured lymphoma cells; assay type: cell-based; conditions: for Mean, cpm (tritiated thymidine count, growth rate): 12 hours, triplicates
Method: The effect of methylglyoxal concentration on the growth rate of cultured lymphoma cells is shown below. The cells used were murine B cell lymphoma cell line (A20;ATCC#TIB-208). Cells labeled A20 were untreated cells that were passed through their regular media. A20 Methylglyoxal Reversed cells had undergone 3 passages in media containing 1 mM methylglyoxal followed by 3 passages in regular media before use. A20 Methylglyoxal P6 cells had 6 passages in media containing 1 mM methylglyoxal before use. At the start of the experiment harvested cells were incubated with DNA precursor tritiated thymidine in media containing the various concentrations of methylglyoxal for 12 hours, then harvested and counted in a scintillation counter. The count data in cpm reflect the growth rate of the cells in the presence of the various methylglyoxal concentrations. Relevant data from this in vitro study are presented here.

[4] = (IV) administration at 3.0 grams/m^2; cited from earlier work

SMILES: CC(=O)C=O [Methylglyoxal, methylglyoxal]
- Time of peak blood concentration [1]: 4 h
- Oral uptake [2]: less than 5%
- Levels causing protein synthesis inhibition, arrested cell growth and induced apoptosis (cancer cells; cancer cells, normal cells were not affected): 1 to 3 mM
- Concentration required to achieve 95-100% cell death (cancer cells; cultured cancer cells or mice inoculated intraperitoneally with cancer cells): ~3 mM
- Survival of lymphoma cells on passage in methylglyoxal ([3]; 1 mM methylglyoxal in media, 3 or 6 passages): able to survive
- Effect on growth rate ([3]; 1.2 mM methylglyoxal, all three A20 cell groups): severely slowed their growth rate
- Growth rate relative to the controls ([3]; 2.5 mM and 5.0 mM methylglyoxal, all three A20 cell groups): less than 0.1 % of the controls
- Mean, cpm (tritiated thymidine count, growth rate) ([3]; A20 1 mM Methylglyoxal P6 cells, 0.3 mM methylglyoxal): 36,001 cpm
- Mean, cpm (tritiated thymidine count, growth rate) ([3]; A20 1 mM Methylglyoxal P6 cells, 0.6 mM methylglyoxal): 35,157 cpm
- Mean, cpm (tritiated thymidine count, growth rate) ([3]; A20 1 mM Methylglyoxal P6 cells, 1.2 mM methylglyoxal): 1,470 cpm
- Mean, cpm (tritiated thymidine count, growth rate) ([3]; A20 1 mM Methylglyoxal P6 cells, 2.5 mM methylglyoxal): 24 cpm
- Mean, cpm (tritiated thymidine count, growth rate) ([3]; A20 1 mM Methylglyoxal P6 cells, 5.0 mM methylglyoxal): 9 cpm
- Mean, cpm (tritiated thymidine count, growth rate) ([3]; A20 1 mM Methylglyoxal Reversed P3 cells, 0.3 mM methylglyoxal): 34,220 cpm
- Mean, cpm (tritiated thymidine count, growth rate) ([3]; A20 1 mM Methylglyoxal Reversed P3 cells, 0.6 mM methylglyoxal): 33,927 cpm
- Mean, cpm (tritiated thymidine count, growth rate) ([3]; A20 1 mM Methylglyoxal Reversed P3 cells, 1.2 mM methylglyoxal): 587 cpm
- Mean, cpm (tritiated thymidine count, growth rate) ([3]; A20 1 mM Methylglyoxal Reversed P3 cells, 2.5 mM methylglyoxal): 7 cpm
- Mean, cpm (tritiated thymidine count, growth rate) ([3]; A20 1 mM Methylglyoxal Reversed P3 cells, 5.0 mM methylglyoxal): 12 cpm
- Development of resistance to methylglyoxal ([3]; A20 Methylglyoxal Reversal and A20 Methylglyoxal P6 cells, passaged in 1 mM methylglyoxal): no evidence
- Mean, cpm (tritiated thymidine count, growth rate) ([3]; A20 untreated cells, 0.3 mM methylglyoxal): 36,289 cpm
- Mean, cpm (tritiated thymidine count, growth rate) ([3]; A20 untreated cells, 0.6 mM methylglyoxal): 30,119 cpm
- Mean, cpm (tritiated thymidine count, growth rate) ([3]; A20 untreated cells, 1.2 mM methylglyoxal): 275 cpm
- Mean, cpm (tritiated thymidine count, growth rate) ([3]; A20 untreated cells, 2.5 mM methylglyoxal): 6 cpm
- Mean, cpm (tritiated thymidine count, growth rate) ([3]; A20 untreated cells, 5.0 mM methylglyoxal): 8 cpm

SMILES: CCCCS(=N)(=O)CCC(N)C(=O)O (stereo not drawn) [buthioinine sulfoximine, buthionine sulfoximine]
- Deleterious effects [4]: no deleterious effects
